Tests used:
[1] = method code SF, from DOI: 10.1002/qsar.19830020303
[2] = method code SF-AS, from DOI: 10.1002/qsar.19830020303

logP | SMILES | also measured
1.71 | CSc1ccccn1 | –
– | NS(=O)(=O)c1cccnc1 | logP [1]: -0.49
– | Cc1cc(N)ncn1 | logP [1]: 0.19
1.76 | CC(=O)c1cnc2ccccc2c1 | –
1.8 | CCCCOc1cccnn1 | –
– | CN(C)c1ccc(Cl)nn1 | logP [1]: 0.98
– | CC(=O)Nc1ccncc1 | logP [1]: 0.5
2.81 | COc1cc(C)nc2ccccc12 | –
– | Cc1cc(C)nc(C)c1 | logP [2]: 2.01
1.06 | NC(=O)c1cnc2ccccc2c1 | –
1.57 | Cc1cccc2c(N)cnnc12 | –
– | Cc1cc(N)nc(C)n1 | logP [1]: 0.39
2.75 | c1ccc(Nc2ccccn2)cc1 | –
– | NC(=S)c1ncccn1 | logP [1]: -0.34
1.55 | CC(=O)Nc1ccc2cccnc2c1 | –
– | NS(=O)(=O)c1ccc2ncccc2c1 | logP [1]: 0.56
1.96 | Cc1cnnc2ccc(Cl)cc12 | –
2.92 | c1ccc2c(N3CCCCC3)ncnc2c1 | –
0.99 | CN(C)c1ccc(N(C)C)nn1 | –
1.41 | COc1cnnc2ccccc12 | –
2.71 | c1ccc(-c2ncnc3ccccc23)cc1 | –
1.8 | O=CNc1cccc2cccnc12 | –
1.44 | CC(=O)c1cc2ccccc2nn1 | –
0.73 | O=[N+]([O-])c1cc2ccccc2nn1 | –
– | CN(C)C(=O)c1cccnc1 | logP [1]: -0.48
– | NNC(=O)c1ccc2ncccc2c1 | logP [1]: 0.35
– | NC(=S)c1cccnc1 | logP [1]: 0.67

logP | SMILES | also measured
1.57 | Clc1cc2ccccc2nn1 | –
1.86 | CSc1nc(C)cc(C)n1 | –
– | Oc1cnc2ccccc2c1 | logD ([1]; pH 7.4): 2.08
1.31 | Nc1ccnc2c([N+](=O)[O-])cccc12 | –
1.98 | Cc1cnnc2cc(Cl)ccc12 | –
– | NC(=O)c1ccncc1 | logP [1]: -0.28
0.99 | CN(C)C(=O)c1cnc2ccccc2c1 | –
1.85 | CSc1ccc(SC)nn1 | –
2.25 | COC(=O)c1cnc2ccccc2c1 | –
– | NC(=O)c1ccc(Cl)nn1 | logP [1]: 0
2.64 | CCOC(=O)c1ccc2ncccc2c1 | –
– | CN(C)c1cccnn1 | logP [1]: 0.29
1.57 | N#Cc1cnc2ccccc2c1 | –
1.96 | O=C(c1ccccc1)c1ccccn1 | –
0.98 | NC(=O)c1cnc2ccccc2n1 | –
– | Nc1ccc(Cl)nn1 | logP [1]: 0.35
1.04 | Nc1cnnc2ccccc12 | –
– | COC(=O)c1cnccn1 | logP [1]: -0.17
– | CS(=O)(=O)c1ccc2ncccc2c1 | logP [1]: 0.7
– | CC(=O)Nc1ncccn1 | logP [1]: -0.75
1.6 | N#Cc1ccc2ccccc2n1 | –
– | CSc1ccc2ccccc2n1 | logP [1]: 3.04
3.15 | c1ccc(Sc2cccnc2)cc1 | –
1.43 | CN(C)c1ccccn1 | –
– | CCOC(=O)c1ccc(Cl)nn1 | logP [1]: 0.12
1.92 | COc1ccnc2c([N+](=O)[O-])cccc12 | –
2.33 | O=S(=O)(c1ccccc1)c1cccc2cccnc12 | –

logP | SMILES | also measured
3.5 | COc1nc(-c2ccccc2)c2ccccc2n1 | –
3.22 | CN(C)c1nnc(-c2ccccc2)c2ccccc12 | –
1.72 | Brc1cc2ccccc2nn1 | –
2.14 | O=Cc1ccc2ccccc2n1 | –
2.29 | CCCOc1cncc(C)n1 | –
3.58 | CNc1nc(-c2ccccc2)c2ccccc2n1 | –
2.22 | COc1nnc(OC)c2ccccc12 | –
2.31 | CCOC(=O)c1cc2ccc(CC)cc2nn1 | –
1.67 | NNc1ncnc2ccccc12 | –
2.45 | c1ccc(Oc2ccccn2)cc1 | –
2.61 | c1ccc2c(NC3CCCC3)ncnc2c1 | –
3.04 | Ic1ccc2ccccc2n1 | –
2.4 | CC(C)(C)c1ccccn1 | –
2.5 | CSc1ncc2ccccc2n1 | –
1.93 | c1ccc(-c2ncncn2)cc1 | –
2.81 | CN(C)c1ccc2ccccc2n1 | –
1.97 | COc1ncnc2ccccc12 | –
1.74 | Clc1ccc2cncnc2c1 | –
1.28 | Nc1ncnc2ccccc12 | –
2.95 | Nc1nc(-c2ccccc2)c2ccccc2n1 | –
0.82 | Nc1nncc2ccccc12 | –
– | Cc1cc(NN)ncn1 | logP [1]: 0.62
3.1 | Cc1nc(-c2ccccc2)c2ccccc2n1 | –
– | CN(C)c1ccnnc1 | logP [1]: -0.09
0.89 | COc1ccc(Cl)nn1 | –
1 | Nc1cc2ccccc2nn1 | –

SMILES | logP | also measured
Cc1cccnc1 | 1.19 | –
c1ccc(-c2nnco2)cc1 | 1.31 | –

— the SangsterLogP compilation
